From patent publication US20150065345A1, “1,2,4 - TRIAZOLE DERIVATIVES AS HERBICIDALS” (SYNGENTA LIMITED, priority 2012, published 2015)

Key:
Type in all cases: in vivo
[1] = tested on: Alopecurus myosuroides (ALOMY); experiment: Glasshouse herbicide test, post-emergence; details: 1000 g/h, evaluated after 13 days, five point scale
Description: (§1) Seeds of a variety of test species are sown in standard soil in pots Alopecurus myosuroides (ALOMY), Amaranthus retoflexus (AMARE), Setaria faberi (SETFA), Echinochloa crus-galli (ECHCG), Lolium perenne (LOLPE), Solanum nigrum (SOLNI), Stellaria media (STEME) and Digitaria sanguinalis (DIGSA). After cultivation for one day (pre-emergence) or after 8 days cultivation (post-emergence) under controlled conditions in a glasshouse (at 24/16° C., day/night; 14 hours light; 65% humidity), the plants are sprayed with an aqueous spray solution derived from the formulation of the technical active ingredient in acetone/water (50:50) solution containing 0.5% Tween 20 (polyoxyethelyene sorbitan monolaurate, CAS RN 9005-64-5). Compounds are applied at 1000 g/h. The test plants are then grown in a glasshouse under controlled conditions in a glasshouse (at 24/16° C., day/night; 14 hours light; 65% humidity) and watered twice daily. After 13 days for pre and post-emergence, the test is evaluated for the percentage damage caused to the plant. The biological activities are shown in the following table on a five point scale (5=80-100%; 4=60-79%; 3=40-59%; 2=20-39%; 1=0-19%).

[2] = tested on: Amaranthus retoflexus (AMARE); experiment: Glasshouse herbicide test, post-emergence; details: 1000 g/h, evaluated after 13 days, five point scale, second table
Description: as §1

Solanum nigrum (SOLNI) [3] = experiment: Glasshouse herbicide test, post-emergence; details: 1000 g/h, evaluated after 13 days, five point scale
Description: as §1

IPOHE [4] = experiment: Glasshouse herbicide test, post-emergence; details: 1000 g/h, evaluated after 13 days, five point scale
Description: [The procedure below names another species; the source lists this species under the same test.] as §1

Setaria faberi (SETFA) [5] = experiment: Glasshouse herbicide test, post-emergence; details: 1000 g/h, evaluated after 13 days, five point scale
Description: as §1

[6] = tested on: Echinochloa crus-galli (ECHCG); experiment: Glasshouse herbicide test, post-emergence; details: 1000 g/h, evaluated after 13 days, five point scale
Description: as §1

[7] = tested on: Alopecurus myosuroides (ALOMY); experiment: Glasshouse herbicide test, pre-emergence; details: 1000 g/h, evaluated after 13 days, five point scale
Description: as §1

[8] = tested on: Amaranthus retoflexus (AMARE); experiment: Glasshouse herbicide test, pre-emergence; details: 1000 g/h, evaluated after 13 days, five point scale, second table
Description: as §1

Solanum nigrum (SOLNI) [9] = experiment: Glasshouse herbicide test, pre-emergence; details: 1000 g/h, evaluated after 13 days, five point scale
Description: as §1

IPOHE [10] = experiment: Glasshouse herbicide test, pre-emergence; details: 1000 g/h, evaluated after 13 days, five point scale
Description: [The procedure below names another species; the source lists this species under the same test.] as §1

Setaria faberi (SETFA) [11] = experiment: Glasshouse herbicide test, pre-emergence; details: 1000 g/h, evaluated after 13 days, five point scale
Description: as §1

[12] = tested on: Echinochloa crus-galli (ECHCG); experiment: Glasshouse herbicide test, pre-emergence; details: 1000 g/h, evaluated after 13 days, five point scale
Description: as §1

Row | SMILES | percentage damage caused to the plant, ALOMY, POST Application [1] | percentage damage caused to the plant, AMARE, POST Application [2] | percentage damage caused to the plant, SOLNI, POST Application (Solanum nigrum (SOLNI) [3]) | percentage damage caused to the plant, IPOHE, POST Application (IPOHE [4]) | percentage damage caused to the plant, SETFA, POST Application (Setaria faberi (SETFA) [5]) | percentage damage caused to the plant, ECHCG, POST Application [6] | percentage damage caused to the plant, ALOMY, PRE Application [7] | percentage damage caused to the plant, AMARE, PRE Application [8] | percentage damage caused to the plant, SOLNI, PRE Application (Solanum nigrum (SOLNI) [9]) | percentage damage caused to the plant, IPOHE, PRE Application (IPOHE [10]) | percentage damage caused to the plant, SETFA, PRE Application (Setaria faberi (SETFA) [11]) | percentage damage caused to the plant, ECHCG, PRE Application [12]
1 | Cn1cnnc1NC(=O)c1ccc(C(F)(F)F)cc1S(C)(=O)=O [Compound 1.008] | 3 (3=40-59%) | 5 (5=80-100%) | 5 (5=80-100%) | 5 (5=80-100%) | 3 (3=40-59%) | 4 (4=60-79%) | 2 (2=20-39%) | 5 (5=80-100%) | 5 (5=80-100%) | 4 (4=60-79%) | 3 (3=40-59%) | 5 (5=80-100%)
2 | Cc1nnc(NC(=O)c2ccc(C(F)(F)F)cc2S(C)(=O)=O)n1C [Compound 1.009] | 2 (2=20-39%) | 2 (2=20-39%) | 4 (4=60-79%) | 3 (3=40-59%) | 1 (1=0-19%) | 1 (1=0-19%) | 1 (1=0-19%) | 4 (4=60-79%) | 2 (2=20-39%) | 1 (1=0-19%) | 1 (1=0-19%) | 1 (1=0-19%)
3 | CCc1nnc(NC(=O)c2ccc(C(F)(F)F)cc2S(C)(=O)=O)n1C [Compound 1.010] | 2 (2=20-39%) | 1 (1=0-19%) | 2 (2=20-39%) | 2 (2=20-39%) | 2 (2=20-39%) | 2 (2=20-39%) | 1 (1=0-19%) | 1 (1=0-19%) | 1 (1=0-19%) | 1 (1=0-19%) | 1 (1=0-19%) | 1 (1=0-19%)
4 | CCn1cnnc1NC(=O)c1ccc(C(F)(F)F)cc1S(C)(=O)=O [Compound 1.011] | 2 (2=20-39%) | 5 (5=80-100%) | 5 (5=80-100%) | 5 (5=80-100%) | 2 (2=20-39%) | 4 (4=60-79%) | 1 (1=0-19%) | 5 (5=80-100%) | 5 (5=80-100%) | 4 (4=60-79%) | 2 (2=20-39%) | 4 (4=60-79%)
5 | CCc1nnc(NC(=O)c2ccc(S(C)(=O)=O)c(COCC(F)(F)F)c2Cl)n1C [Compound 1.013] | 2 (2=20-39%) | 1 (1=0-19%) | 2 (2=20-39%) | 1 (1=0-19%) | 1 (1=0-19%) | 1 (1=0-19%) | 1 (1=0-19%) | 1 (1=0-19%) | 1 (1=0-19%) | 1 (1=0-19%) | 1 (1=0-19%) | 1 (1=0-19%)
6 | CCn1cnnc1NC(=O)c1ccc(S(C)(=O)=O)c(COCC(F)(F)F)c1Cl [Compound 1.014] | 5 (5=80-100%) | 5 (5=80-100%) | 5 (5=80-100%) | 5 (5=80-100%) | 5 (5=80-100%) | 5 (5=80-100%) | 5 (5=80-100%) | 5 (5=80-100%) | 5 (5=80-100%) | 5 (5=80-100%) | 5 (5=80-100%) | 5 (5=80-100%)
7 | CCn1c(C)nnc1NC(=O)c1ccc(S(C)(=O)=O)c(COCC(F)(F)F)c1Cl [Compound 1.015] | 2 (2=20-39%) | 4 (4=60-79%) | 4 (4=60-79%) | 4 (4=60-79%) | 1 (1=0-19%) | 2 (2=20-39%) | 1 (1=0-19%) | 4 (4=60-79%) | 4 (4=60-79%) | 2 (2=20-39%) | 1 (1=0-19%) | 1 (1=0-19%)
8 | Cn1cnnc1NC(=O)c1cc(F)c(F)cc1[N+](=O)[O-] [Compound 2.003] | 1 (1=0-19%) | 1 (1=0-19%) | 1 (1=0-19%) | 1 (1=0-19%) | 1 (1=0-19%) | 1 (1=0-19%) | 1 (1=0-19%) | 1 (1=0-19%) | 1 (1=0-19%) | 1 (1=0-19%) | 1 (1=0-19%) | 1 (1=0-19%)
9 | Cc1ccc([N+](=O)[O-])c(C(=O)Nc2nncn2C)c1 [Compound 2.005] | 1 (1=0-19%) | 4 (4=60-79%) | 4 (4=60-79%) | 4 (4=60-79%) | 1 (1=0-19%) | 1 (1=0-19%) | 1 (1=0-19%) | 2 (2=20-39%) | 2 (2=20-39%) | 3 (3=40-59%) | 1 (1=0-19%) | 1 (1=0-19%)
10 | Cc1ccc(C(F)(F)F)c(C(=O)Nc2nncn2C)c1 [Compound 2.006] | 1 (1=0-19%) | 2 (2=20-39%) | 4 (4=60-79%) | 2 (2=20-39%) | 1 (1=0-19%) | 1 (1=0-19%) | 1 (1=0-19%) | 2 (2=20-39%) | 3 (3=40-59%) | 3 (3=40-59%) | 1 (1=0-19%) | 1 (1=0-19%)
